{"source": "patent US6599907B1", "about": "“Cystic fibrosis medicaments” (University of Wales College of Medicine, priority 1999, dated 2003)", "key": {"[1]": {"system": "cyclic GMP", "assay": "Cyclic GMP content of acini (radioimmunoassay)", "format": "cell-based, rat", "conditions": "for Cyclic GMP (fmol/mg protein), + Isoproterenol (10 μM) / Cyclic GMP (fmol/mg protein), No Isoproterenol: 5 min, IBMX, Types III, IV 1 mM, Type V 0.2 mM, mean±SEM (n)"}, "[2]": {"system": "CFTR", "assay": "Correction of CFTR antibody-inhibited β-adrenergic stimulation of mucin secretion in rat submandibular acini", "conditions": "acini containing CFTR antibody; isoproterenol 10 μM + PDE inhibitor (Types III, IV 1 mM; Type V 0.2 mM); 30 min; compared with cpt-cyclic AMP 1 mM"}, "[3]": {"system": "rat submandibular acini", "assay": "Mucin secretion from rat submandibular acini ([3H]-glucosamine labelled mucin release)", "conditions": "for Mucin Secretion (% basal), isoproterenol-stimulated: isoproterenol 10 μM alone or + PDE inhibitor (IBMX, Type III, Type IV 1 mM; Type V 0.2 mM), 30 min, n in parentheses; for Mucin secretion % basal: wild type mucin secretion"}, "[4]": {"system": "cyclic AMP", "assay": "Cyclic AMP content of acini (radioimmunoassay)", "format": "cell-based, rat", "conditions": "for Cyclic AMP (pmol/mg protein), isoproterenol-stimulated: isoproterenol 10 μM alone or + PDE inhibitor (IBMX, Type III, Type IV 1 mM; Type V 0.2 mM), 5 min, n in parentheses"}, "[5]": {"system": "CFTR", "conditions": "acini containing CFTR antibody; 1 mM; 'has been shown'; cited from earlier work"}, "[6]": {"target": "PDE V (Homo sapiens, UniProt O76074)", "assay": "PDE V inhibition", "format": "biochemical"}}, "note": "pIC50: −log10 of the molar value. Like-named read-outs stand apart in the source and are kept apart here. Marks after values point to notes of the source that are not given here."}
{"molecule": "C[C@@H]1CC(=O)NN=C1c1ccc(-n2ccc(=O)cc2)cc1", "note": "(racemic) [Type III, (R,S)-4,5-dihydro-6-[4-(1,4-dihydro-4-oxopyridin-1-yl)phenyl]-5-methyl-3(2H)-pyridazinone, reference compound]", "values": [{"measurement": "Cyclic GMP (fmol/mg protein), + Isoproterenol (10 μM)", "setting": "[1]", "value": "47.0 ± 1.8 (4) fmol/mg protein"}, {"measurement": "Cyclic GMP (fmol/mg protein), No Isoproterenol", "setting": "[1]", "value": "39.3 ± 2.4 (3) fmol/mg protein"}, {"measurement": "Correction of the defective β-adrenergic secretory response (FIG. 1)", "setting": "[2]", "value": "ineffective"}, {"measurement": "Mucin Secretion (% basal), isoproterenol-stimulated", "setting": "[3]", "value": "692 ± 238 (6) % basal"}, {"measurement": "Cyclic AMP (pmol/mg protein), isoproterenol-stimulated", "setting": "[4]", "value": "*1009.6 ± 91.5 (6) pmol/mg protein"}]}
{"molecule": "CC(C)Cn1c(=O)n(C)c(=O)c2[nH]cnc21", "note": "[IBMX, reference compound]", "values": [{"measurement": "Cyclic GMP (fmol/mg protein), + Isoproterenol (10 μM)", "setting": "[1]", "value": "**55.6 ± 1.6 (8) fmol/mg protein"}, {"measurement": "Cyclic GMP (fmol/mg protein), No Isoproterenol", "setting": "[1]", "value": "48.1 ± 5.2 (8) fmol/mg protein"}, {"measurement": "Mucin Secretion (% basal), isoproterenol-stimulated", "setting": "[3]", "value": "924 ± 290 (6) % basal"}, {"measurement": "Restored secretion, % of the secretion response seen in cells containing an equivalent amount of non-immune IgG", "setting": "[5]", "value": "approx. 75%"}, {"measurement": "Cyclic AMP (pmol/mg protein), isoproterenol-stimulated", "setting": "[4]", "value": "*1252.9 ± 129.6 (6) pmol/mg protein"}]}
{"molecule": "CC(C)NCC(O)c1ccc(O)c(O)c1", "note": "(stereo not drawn) [Isoproterenol, reference compound]", "values": [{"measurement": "Cyclic GMP (fmol/mg protein), + Isoproterenol (10 μM)", "setting": "[1]", "value": "45.2 ± 1.6 (4) fmol/mg protein"}, {"measurement": "Mucin Secretion (% basal), isoproterenol-stimulated", "setting": "[3]", "value": "785 ± 212 (6) % basal"}, {"measurement": "Cyclic AMP (pmol/mg protein), isoproterenol-stimulated", "setting": "[4]", "value": "373.0 ± 84.0 (6) pmol/mg protein"}]}
{"molecule": "COc1ccc(C2CNC(=O)C2)cc1OC1CCCC1", "note": "(stereo not drawn) [Type IV, 4-(3-cyclopentyloxy-4-methoxyphenyl)-2-pyrrolidinone, reference compound]", "values": [{"measurement": "Cyclic GMP (fmol/mg protein), + Isoproterenol (10 μM)", "setting": "[1]", "value": "45.2 ± 2.0 (4) fmol/mg protein"}, {"measurement": "Cyclic GMP (fmol/mg protein), No Isoproterenol", "setting": "[1]", "value": "40.1 ± 1.5 (3) fmol/mg protein"}, {"measurement": "Correction of the defective β-adrenergic secretory response (FIG. 1)", "setting": "[2]", "value": "as effective as cpt-cAMP"}, {"measurement": "Mucin Secretion (% basal), isoproterenol-stimulated", "setting": "[3]", "value": "708 ± 220 (6) % basal"}, {"measurement": "Cyclic AMP (pmol/mg protein), isoproterenol-stimulated", "setting": "[4]", "value": "**1908.7 ± 150.8 (6) pmol/mg protein"}]}
{"molecule": "CCCOc1ccccc1-c1nc2[nH]cnc2c(=O)[nH]1", "note": "[Type V, 1,7-dihydro-2-(2-propoxyphenyl)-6H-purin-6-one]", "values": [{"measurement": "Cyclic GMP (fmol/mg protein), + Isoproterenol (10 μM)", "setting": "[1]", "value": "**64.3 ± 3.6 (5) fmol/mg protein"}, {"measurement": "Cyclic GMP (fmol/mg protein), No Isoproterenol", "setting": "[1]", "value": "*47.3 ± 2.5 (5) fmol/mg protein"}, {"measurement": "Correction of the defective β-adrenergic secretory response (FIG. 1)", "setting": "[2]", "value": "as effective as cpt-cAMP"}, {"measurement": "Mucin Secretion (% basal), isoproterenol-stimulated", "setting": "[3]", "value": "755 ± 243 (6) % basal"}, {"measurement": "Cyclic AMP (pmol/mg protein), isoproterenol-stimulated", "setting": "[4]", "value": "375.5 ± 95.8 (6) pmol/mg protein"}, {"measurement": "Cyclic AMP (pmol/mg protein), isoproterenol-stimulated", "setting": "[4]; listed as Type V PDE inhibitor", "value": "did not potentiate"}]}
{"molecule": "CCCOc1ccccc1-c1nc2[nH]cnc2c(=O)[nH]1", "note": "[a)]", "values": [{"measurement": "cyclic GMP % basal", "setting": "[1]", "value": 140, "unit": "% basal"}, {"measurement": "Mucin secretion % basal", "setting": "[3]", "value": 120, "unit": "% basal"}, {"measurement": "cyclic AMP % basal", "setting": "[4]", "value": 100, "unit": "% basal"}]}
{"molecule": "CCCOc1ccccc1-c1nc2cnccc2c(=O)[nH]1", "note": "[b)]", "values": [{"measurement": "cyclic GMP % basal", "setting": "[1]", "value": 130, "unit": "% basal"}, {"measurement": "Mucin secretion % basal", "setting": "[3]", "value": "180* % basal"}, {"measurement": "cyclic AMP % basal", "setting": "[4]", "value": "600* % basal"}, {"measurement": "pIC50", "setting": "[6]", "value": 6.26}]}
{"molecule": "CNc1ncc2c(=O)[nH]c(-c3ccccc3OC)nc2n1", "note": "[c)]", "values": [{"measurement": "cyclic GMP % basal", "setting": "[1]", "value": 90, "unit": "% basal"}, {"measurement": "Mucin secretion % basal", "setting": "[3]", "value": "160* % basal"}, {"measurement": "cyclic AMP % basal", "setting": "[4]", "value": "250* % basal"}, {"measurement": "pIC50", "setting": "[6]; read-out: PDE V IC50", "value": 4.66}]}
{"molecule": "COc1ccccc1-c1nc2cccnc2[nH]1", "note": "[d)]", "values": [{"measurement": "cyclic GMP % basal", "setting": "[1]", "value": 90, "unit": "% basal"}, {"measurement": "Mucin secretion % basal", "setting": "[3]", "value": "200* % basal"}, {"measurement": "cyclic AMP % basal", "setting": "[4]", "value": "600* % basal"}, {"measurement": "pIC50", "setting": "[6]; read-out: PDE V IC50", "value": 4.47}]}
{"molecule": "CCCOc1ccccc1-c1nc2nc(N)ncc2c(=O)[nH]1", "note": "[e)]", "values": [{"measurement": "cyclic GMP % basal", "setting": "[1]", "value": 130, "unit": "% basal"}, {"measurement": "Mucin secretion % basal", "setting": "[3]", "value": "170* % basal"}, {"measurement": "cyclic AMP % basal", "setting": "[4]", "value": "350* % basal"}, {"measurement": "pIC50", "setting": "[6]; read-out: PDE V IC50", "value": 6.19}]}
{"molecule": "CCOc1ccccc1-c1nc2[nH]cnc2c(=O)[nH]1", "note": "[f)]", "values": [{"measurement": "cyclic GMP % basal", "setting": "[1]", "value": 110, "unit": "% basal"}, {"measurement": "Mucin secretion % basal", "setting": "[3]", "value": "160* % basal"}, {"measurement": "cyclic AMP % basal", "setting": "[4]", "value": 100, "unit": "% basal"}, {"measurement": "pIC50", "setting": "[6]; read-out: PDE V IC50", "value": 5.35}]}
{"molecule": "CCCCOc1ccccc1-c1nc2cccnc2[nH]1", "note": "[g)]", "values": [{"measurement": "cyclic GMP % basal", "setting": "[1]", "value": 110, "unit": "% basal"}, {"measurement": "Mucin secretion % basal", "setting": "[3]", "value": "200* % basal"}, {"measurement": "cyclic AMP % basal", "setting": "[4]", "value": "160* % basal"}, {"measurement": "pIC50", "setting": "[6]; read-out: PDE V IC50", "value": 6.12}]}
{"molecule": "O=c1[nH]c(-c2ccccc2O)nc2[nH]cnc12", "note": "[h)]", "values": [{"measurement": "cyclic GMP % basal", "setting": "[1]", "value": 110, "unit": "% basal"}, {"measurement": "Mucin secretion % basal", "setting": "[3]", "value": "180* % basal"}, {"measurement": "cyclic AMP % basal", "setting": "[4]", "value": 100, "unit": "% basal"}, {"measurement": "pIC50", "setting": "[6]; read-out: PDE V IC50", "value": 4.32}]}
{"molecule": "CCCOc1ccccc1-c1nc2nc(NCC(C)O)ncc2c(=O)[nH]1", "note": "(stereo not drawn) [i)]", "values": [{"measurement": "cyclic GMP % basal", "setting": "[1]", "value": 90, "unit": "% basal"}, {"measurement": "Mucin secretion % basal", "setting": "[3]", "value": "170* % basal"}, {"measurement": "cyclic AMP % basal", "setting": "[4]", "value": 100, "unit": "% basal"}, {"measurement": "pIC50", "setting": "[6]; read-out: PDE V IC50", "value": 6.70}]}
{"molecule": "CCOc1ccccc1-c1nc2[nH]c(=O)[nH]c2c(=O)[nH]1", "note": "[j)]", "values": [{"measurement": "cyclic GMP % basal", "setting": "[1]", "value": "140* % basal"}, {"measurement": "Mucin secretion % basal", "setting": "[3]", "value": "160* % basal"}, {"measurement": "cyclic AMP % basal", "setting": "[4]", "value": 100, "unit": "% basal"}, {"measurement": "pIC50", "setting": "[6]; read-out: PDE V IC50", "value": 5.89}]}
